Reference: US10519152B2, “Compounds and their use in treating cancer” (AstraZeneca AB, priority 2017, dated 2019)

Biological target: T1, Estrogen Receptor (ERα) in MCF-7 human ductal carcinoma breast cell line (Homo sapiens, UniProt P03372)
T1 construct: endogenous in cells; host or cells: MCF-7
T1 sequence (P03372 1-595): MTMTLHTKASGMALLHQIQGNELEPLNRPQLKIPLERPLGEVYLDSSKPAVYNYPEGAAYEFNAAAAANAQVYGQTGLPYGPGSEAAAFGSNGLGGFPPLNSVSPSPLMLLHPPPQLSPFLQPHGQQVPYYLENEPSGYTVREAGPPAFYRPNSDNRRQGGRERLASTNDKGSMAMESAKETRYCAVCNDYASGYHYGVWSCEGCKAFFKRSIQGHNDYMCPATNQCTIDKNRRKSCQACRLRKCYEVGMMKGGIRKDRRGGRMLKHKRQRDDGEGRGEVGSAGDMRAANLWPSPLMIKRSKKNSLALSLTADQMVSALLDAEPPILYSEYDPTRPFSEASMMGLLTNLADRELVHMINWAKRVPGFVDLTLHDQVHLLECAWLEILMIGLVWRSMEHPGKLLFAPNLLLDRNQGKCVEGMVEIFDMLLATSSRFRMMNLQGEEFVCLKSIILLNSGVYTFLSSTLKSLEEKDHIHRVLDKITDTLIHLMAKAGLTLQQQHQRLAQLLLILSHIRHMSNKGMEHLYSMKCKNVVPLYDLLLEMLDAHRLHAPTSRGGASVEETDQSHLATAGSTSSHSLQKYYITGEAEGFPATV
Assay: MCF-7 ER degradation assay (cell based immuno-fluorescence)
Conditions: MCF-7 cells; for ER degradation ≥ 90% at 0.3 μM: ER degradation by fulvestrant at 0.3 μM is defined as 100%; for DC50: 18-22 hours incubation, 50% reduction of ERα expression, single experiment or average of two or more, read-out: MCF-7 ER degradation IC50
Procedure: MCF-7 ER Degradation Assay
The ability of compounds to down-regulate Estrogen Receptor (ER) numbers was assessed in a cell based immuno-fluorescence assay using the MCF-7 human ductal carcinoma breast cell line. MCF-7 cells were revived directly from a cryovial (approx 5×10^6 cells) in Assay Medium (phenol red free Dulbecco's Modified Eagle's medium (DMEM); Sigma D5921) containing 2 mM L-Glutamine and 5% (v/v) Charcoal/Dextran treated foetal calf serum. Cells were syringed once using a sterile 18 G×1.5 inch (1.2×40 mm) broad gauge needle and cell density was measured using a Coulter Counter (Beckman). Cells were further diluted in Assay Medium to a density of 3.75×10^4 cells per mL and 40 μL per well added to transparent bottomed, black, tissue culture-treated 384 well plates (Costar, No. 3712) using a Thermo Scientific Matrix WellMate or Thermo Multidrop. Following cell seeding, plates were incubated overnight at 37° C., 5% CO2 (Liconic carousel incubator). Test data was generated using the LabCyte Echo™ model 555 compound reformatter which is part of an automated workcell (Integrated Echo 2 workcell). Compound stock solutions (10 mM) of the test compounds were used to generate a 384 well compound dosing plate (Labcyte P-05525-CV1). 40 μL of each of the 10 mM compound stock solutions was dispensed into the first quadrant well and then 1:100 step-wise serial dilutions in DMSO were performed using a Hydra II (MATRIX UK) liquid handling unit to give 40 μL of diluted compound into quadrant wells 2 (0.1 mM), 3 (1 μM) and 4 (0.01 μM), respectively. 40 μL of DMSO added to wells in row P on the source plate allowed for DMSO normalisation across the dose range. To dose the control wells 40 μL of DMSO was added to row O1 and 40 μL of 100 μM fulvestrant in DMSO was added to row O3 on the compound source plate.
The Echo uses acoustic technology to perform direct microplate-to-microplate transfers of DMSO compound solutions to assay plates. The system can be programmed to transfer volumes as low as 2.5 nL in multiple increments between microplates and in so doing generates a serial dilution of compound in the assay plate which is then back-filled to normalise the DMSO concentration across the dilution range. Compounds were dispensed onto the cell plates with a compound source plate prepared as above producing a 12 point duplicate […] dose range with 3-fold dilutions and one final 10-fold dilution using the Integrated Echo 2 workcell. The maximum signal control wells were dosed with DMSO to give a final concentration of 0.3%, and the minimum signal control wells were dosed with fulvestrant to give a final concentration of 100 nM accordingly. Plates were further incubated for 18-22 hours at 37° C., 5% CO2 and then fixed by the addition of 20 μL of 11.1% (v/v) formaldehyde solution (in phosphate buffered saline (PBS)) giving a final formaldehyde concentration of 3.7% (v/v). Cells were fixed at room temperature for 20 mins before being washed two times with 250 μL PBS/Proclin (PBS with a Biocide preservative) using a BioTek platewasher, 40 μL of PBS/Proclin was then added to all wells and the plates stored at 4° C. The fixing method described above was carried out on the Integrated Echo 2 workcell. Immunostaining was performed using an automated AutoElisa workcell. The PBS/Proclin was aspirated from all wells and the cells permeabilised with 40 μL PBS containing 0.5% Tween™ 20 (v/v) for 1 hour at room temperature. The plates were washed three times in 250 μL of PBS/0.05% (v/v) Tween 20 with Proclin (PBST with a Biocide preservative) and then 20 μL of ERα (SP1) Rabbit monoclonal antibody (Thermofisher) 1:1000 in PBS/Tween™/3% (w/v) Bovine Serum Albumin was added. The plates were incubated overnight at 4° C. (Liconic carousel incubator) and then washed three times in 250 μL of PBS/0.05% (v/v) Tween™ 20 with Proclin (PBST). […]

| Compound | ER degradation ≥ 90% at 0.3 μM | DC50 |
| --- | --- | --- |
| Cc1ncsc1-c1ccc(CNC(=O)[C@@H]2C[C@@H](O)CN2C(=O)[C@@H](NC(=O)COCc2ccc(COc3cc(F)c([C@@H]4c5[nH]c6ccccc6c5C[C@@H](C)N4CC(C)(C)F)c(F)c3)cc2)C(C)(C)C)cc1 [Example 19, (2S,4R)-1-((S)-2-(2-((4-((3,5-difluoro-4-((1R,3R)-2-(2-fluoro-2-methylpropyl)-3-methyl-2,3,4,9-tetrahydro-1H-pyrido[3,4-b]indol-1-yl)phenoxy)methyl)benzyl)oxy)acetamido)-3,3-dimethylbutanoyl)-4-hydroxy-N-(4-(4-methylthiazol-5-yl)benzyl)pyrrolidine-2-carboxamide] | •• | 3.2 nM |
| Cc1ncsc1-c1ccc(CNC(=O)[C@@H]2C[C@@H](O)CN2C(=O)[C@@H](NC(=O)COCC(F)(F)COCCCCCOc2cc(F)c([C@@H]3c4[nH]c5ccccc5c4C[C@@H](C)N3CC(C)(C)F)c(F)c2)C(C)(C)C)cc1 [Example 126, (2S,4R)-1-((S)-2-(2-(3-((5-(3,5-Difluoro-4-((1R,3R)-2-(2-fluoro-2-methylpropyl)-3-methyl-2,3,4,9-tetrahydro-1H-pyrido[3,4-b]indol-1-yl)phenoxy)pentyl)oxy)-2,2-difluoropropoxy)acetamido)-3,3-dimethylbutanoyl)-4-hydroxy-N-(4-(4-methylthiazol-5-yl)benzyl)pyrrolidine-2-carboxamide] | • | 1.8 nM |
| Cc1ncsc1-c1ccc(CNC(=O)[C@@H]2C[C@@H](O)CN2C(=O)[C@@H](NC(=O)C2(OCCCOCCCOc3cc(F)c([C@@H]4c5[nH]c6ccccc6c5C[C@@H](C)N4CC(C)(C)F)c(F)c3)CC2)C(C)(C)C)cc1 [Example 135, (2S,4R)-1-((S)-2-(1-(3-(3-(3,5-Difluoro-4-((1R,3R)-2-(2-fluoro-2-methylpropyl)-3-methyl-2,3,4,9-tetrahydro-1H-pyrido[3,4-b]indol-1-yl)phenoxy)propoxy)propoxy)cyclopropane-1-carboxamido)-3,3-dimethylbutanoyl)-4-hydroxy-N-(4-(4-methylthiazol-5-yl)benzyl)pyrrolidine-2-carboxamide] | • |  |

Now from value to molecule:

| ER degradation ≥ 90% at 0.3 μM | DC50 | Compound |
| --- | --- | --- |
| • | 0.8 nM | Cc1ncsc1-c1ccc(CNC(=O)[C@@H]2C[C@@H](O)CN2C(=O)[C@@H](NC(=O)COC[C@@H]2CC2COCCOc2cc(F)c([C@@H]3c4[nH]c5ccccc5c4C[C@@H](C)N3CC(C)(C)F)c(F)c2)C(C)(C)C)cc1 (single isomer, unassigned) [Example 124, (2S,4R)-1-[(2S)-2-[[2-[[(1R*2S*)-2-[2-[3,5-Difluoro-4-[(1R,3R)-2-(2-fluoro-2-methyl-propyl)-3-methyl-1,3,4,9-tetrahydropyrido[3,4-b]indol-1-yl]phenoxy]ethoxymethyl]cyclopropyl]methoxy]acetyl]amino]-3,3-dimethyl-butanoyl]-4-hydroxy-N-[[4-(4-methylthiazol-5-yl)phenyl]methyl]pyrrolidine-2-carboxamide] |
| •• | 0.8 nM | Cc1ncsc1-c1ccc(CNC(=O)[C@@H]2C[C@@H](O)CN2C(=O)[C@@H](NC(=O)CCCCCCNC(=O)/C=C/c2cc(F)c([C@@H]3c4[nH]c5ccccc5c4C[C@@H](C)N3CC(C)(C)F)c(F)c2)C(C)(C)C)cc1 [Example 59, (2S,4R)-1-((S)-2-(7-((E)-3-(3,5-difluoro-4-((1R,3R)-2-(2-fluoro-2-methylpropyl)-3-methyl-2,3,4,9-tetrahydro-1H-pyrido[3,4-b]indol-1-yl)phenyl)acrylamido)heptanamido)-3,3-dimethylbutanoyl)-4-hydroxy-N-(4-(4-methylthiazol-5-yl)benzyl)pyrrolidine-2-carboxamide, Trifluoroacetic Acid] |
| • | 0.5 nM | Cc1ncsc1-c1ccc(CNC(=O)[C@@H]2C[C@@H](O)CN2C(=O)[C@@H](NC(=O)COC[C@@H]2CC2COCCOc2cc(F)c([C@@H]3c4[nH]c5ccccc5c4C[C@@H](C)N3CC(C)(C)F)c(F)c2)C(C)(C)C)cc1 (single isomer, unassigned) [Example 123, (2S,4R)-1-[(2S)-2-[[2-[[(1R*2S*)-2-[2-[3,5-Difluoro-4-[(R,3R)-2-(2-fluoro-2-methyl-propyl)-3-methyl-1,3,4,9-tetrahydropyrido[3,4-b]indol-1-yl]phenoxy]ethoxymethyl]cyclopropyl]methoxy]acetyl]amino]-3,3-dimethyl-butanoyl]-4-hydroxy-N-[[4-(4-methylthiazol-5-yl)phenyl]methyl]pyrrolidine-2-carboxamide] |
